Like-named read-outs stand apart in the source and are kept apart here.
Columns and labels:
TPA-induced ear edema = assay: 12-o-tetradecanoylphorbol acetate (TPA)-induced murine ear edema assay; type: in vivo, mouse (Swiss Webster); conditions: TPA; for ED50: Mus musculus, sc, 4 h, read-out: Subcutaneous ED50; for Subcutaneous % Inhibition at 50 m/kg / ED50: subcutaneous
Protocol: The ability of the compounds of the invention to inhibit inflammatory responses is examined in the in vivo arachidonic acid (AA)/12-o-tetradecanoylphorbol acetate (TPA)-induced murine ear edema assay.
Swiss Webster female mice (Buckshire), approximately 8 weeks old are placed into plastic boxes in groups of six. Eight groups of mice receive AA topically on the right ear, and another 8 groups receive TPA topically on the right ear. AA and TPA are dissolved in acetone at concentrations of 100 mg/ml and 100 μg/ml respectively. The phlogistics are applied to the right ear by the means of an automatic pipet. Volumes of 10 μl are applied to the inner and outer surfaces of the ear. Each mouse receives either 2 mg/ear AA or 2 μg/ear TPA. The left ear (control) receives acetone delivered in the same manner. Topical and subcutaneous dosing regimens are as follows 1) drugs are given 30 minutes prior to AA treatment and 2) drugs are given 30 minutes after treatment with TPA.
Measurements are taken with Oditest calipers, 0-10 mm with 0.01 graduations. The right and left ears are measured after 1 hr AA-induced inflammation and 4 hours after TPA-induced inflammation.
The difference between right and left ear thickness is calculated and the significance is determined by a one way analysis of variance with Dunnett's comparisons to control (P=0.05). Drug effects are expressed as a percent change from control values: [formula]

cyclooxygenase (PGE2) = assay: resident murine peritoneal macrophage assay, PGE2; type: cell-based, mouse (Swiss Webster); conditions: Mus musculus, Peritoneal macrophage; for IC50: read-out: PGE2 zymosan IC50
Protocol: The ability of the compounds of the invention to act as inhibitors of the enzymes 5-lipoxygenase and cyclooxygenase is measured in the resident murine peritoneal macrophage assay.
Resident peritoneal macrophages are collected from female Swiss Webster mice (49 days old, 20-25 gms, Buckshire) by lavaging with 7-8 ml Hanks Balanced Salt Solution (HBSS) without Ca^++ and Mg^++ (GIBCO). The lavage fluid from several mice is pooled and centrifuged at 4° C. for 10 minutes at 400 xg. The cell pellet is resuspended in Medium 199 (GIBCO) with HEPES buffer containing 100 μg/ml gentamicin. Two ml of the cell suspension (4×10^6 cells) are then plated on 35 mm culture dishes (Nunc).
A macrophage monolayer is established after a 1-1.5 hour incubation of the cells at 37° C. in an atmosphere of […] and 5% CO2. The monolayers are washed 2× with 2 ml HBDSS, containing Ca^++ and Mg^++ after which 2 ml Medium 199 supplemented with 10% freshly thawed heat-inactivated fetal bovine serum and 100 μg/ml gentamicin is added for an overnight incubation.
Residual serum and cellular debris are removed from the monolayers by washing 3× with 2 ml HBSS containing Ca^++ and Mg^++. Macrophages are preincubated for 5 minutes with 1 ml serum-free M199 containing 10 μl dimethyl sulfoxide (DMSO) vehicle or test compound prior to cell activation with zymosan ([…]) or arachidonic acid (AA) (2 μM). After 2 hours, the supernatants are removed and either assayed for LTC4 and PGE2 by radioimmunoassay (RIA) directly or stored at -20° C. In all cases, results are expressed as ng metabolite/4×10^6 cells.
Raw data (dpm) may be stored directly onto an "Autostart" tape using the HP85 in room C-096. The raw data are converted to ng metabolite/4-10^6cells using the standard curve by a "RIANAL" program (HP85) or a "NONLIN" program (HP9816). Results are then expressed as percent inhibition of zymosan induced, leukotriene or prostaglandin synthesis (control) using the equation: [formula]

[1] = system: LTB4 biosynthesis in purified human neutrophils; assay: LTB4 biosynthesis in human polymorphonuclear neutrophils (in vitro phospholipase A2 assay); type: cell-based; conditions: Neutrophil, human PMN
Protocol: The compounds of the invention are tested in an in vitro phospholipase A2 assay to determine the ability of the compounds to inhibit the biosynthesis of platelet-activating factor and LTB4 in purified human neutrophils.
A leukocyte enriched blood sample obtained from a healthy donor is procured by leukophoresis using a Haemonetics model 30+ blood processor (Biological Specialties, Inc., Lansdale, Penn.). The top "platelet-rich" layer is removed after a low speed spin (35 xg, 15 min, 25° C.) of the sample. The remaining cell suspension is centrifuged (400 xg, 10 min, 25° C.) to sediment the remaining cells. The supernatant is discarded and the cell pellet resuspended in 120 ml HBSS (without Ca^++ /Mg^++). The cell suspension is subjected to ficoll-hypaque sedimentation (Histopaque 1077, 400 xg, 30 min, 25° C.). Contaminating erythrocytes are lysed by hypotonic shock (1 min). The cells are then washed once with 40 ml of HBSS and resuspended with HBSS (without Ca^++ /Mg^++) to a concentration of 2.5×10^7 cells/ml for further use. Greater than 95% purity is obtained, as assessed by microscopic examination.
One ml of human PMN (2.5×10^7 cells/ml) is incubated with vehicle or drugs (10 μl) for 10 minutes at 30° C. After preincubation, an equal volume of HBSS (1 ml) containing 2.4 mM CaCl2, 6 μM calcium ionophore A23187 and 50 μCi [^3 H]-acetate is then incubated at 30° C. for 15 minutes. An aliquot (100 μl) of the reaction mixture is taken out and mixed with 900 μl of 15% ethanol. LTB4 is extracted by using solid phase extraction on reverse phase C18 columns to remove excess [^3 H]-acetate and PAD. The C18 column is prewashed once with 2 ml of ethanol and water. The sample aliquot is acidified with 0.1N HCl to pH 3 before applying to the column. The column is then washed with 2 ml of water followed by 2 ml of 15% ethanol and 2 ml of petroleum ether to remove excess labeled acetate. The sample is eluted with 2 ml of ethyl acetate. The collected samples are dried with nitrogen and resuspended in 0.5 ml RIA buffer. The quantity of LTB4 in the sample is obtained from RIA determination. For PAF determination, the reaction is terminated by addition of 5 ml chloroform:methanol:acetic acid (2:1:0.04, v/v/v). [^3 H]-PAF is obtained by Bligh and Dyer extraction. The chloroform phase is removed and dried under nitrogen. The residue is redissolved in 75 μl of chloroform:methanol (80:20, v/v). [^3 H]-PAF is resolved from other phospholipids by TLC on RPC18 plates with a solvent system of chloroform:methanol:water (2:3:1, v/v/v) and is quantitated using a Berthold automated TLC linear analyzer.
Data presented are the mean +/- s.d. of the values relative to control A23187 stimulated cells for each experiment assayed in triplicate. Percent inhibition when used is calculated as:
% Inhibition=100-[(x.div.Control)×100].
Dose response analysis is performed by non-linear regression analysis for curve fitting and IC50 determination.

[2] = zymosan stimulation, read-out: PGE2 zymosan % Inhibition
[3] = arachidonic acid stimulation, read-out: PGE2 AA % Inhibition

IC50 (cyclooxygenase (PGE2); zymosan stimulation) [nM]	SMILES	Subcutaneous % Inhibition at 50 m/kg (TPA-induced ear edema; on line of vehicle acetone) [%]	Topical % Inhibition at 200 μg (TPA-induced ear edema; vehicle acetone) [%]	inhibition at 10 µM [1] [%]	inhibition at 50 µM [1] [%]	ED50 (TPA-induced ear edema) [mg/kg]	Topical % Inhibition at 200 μg (TPA-induced ear edema; vehicle EPW) [%]	inhibition at 25 µM [1] [%]	inhibition at 0.1 µM (cyclooxygenase (PGE2); zymosan stimulation) [%]	other results
700	CCCCC/C=C\C/C=C\C/C=C\CCCCC(=O)C1=C(O)COC1=O [Example 20, (Z,Z,Z)-4-Hydroxy-3-(1-oxo-6,9,12-octadecatrienyl)-2(5H)-furanone]	76	80	–	95	31	81	–	–	inhibition at 1 µM (cyclooxygenase (PGE2); arachidonic acid stimulation, 1.0 μM, read-out: PGE2 AA % Inhibition): 1%
350	CC/C=C\C/C=C\C/C=C\CCCCCCCC(=O)C1=C(O)COC1=O [Example 15, (Z,Z,Z)-4-Hydroxy-3-(1-oxo-9,12,15-octadecatrienyl)-2(5H)-furanone]	–	34	–	68	–	–	–	–	–
200	CCCCCC1CC1CC1CC1CCCCCCCC(=O)C1=C(O)COC1=O (stereo not shown) [Example 22, 4-Hydroxy-3-[1-oxo-8-[2-[(2-pentylcyclopropyl)methyl]cyclopropyl]octyl]-2(5H)-furanone]	36	40	93	–	–	–	91	–	–
–	CCCCCCCCCCC/C=C\CCCCC(=O)C1=C(O)CSC1=O [Example 51, 4-Hydroxy-3-[(Z)-1-oxo-6-octadecenyl]-2(5H)-thiophenone]	–	–	–	–	–	–	–	0.5	Subcutaneous % Inhibition at 50 m/kg (TPA-induced ear edema; no vehicle on line): 76%; Topical % Inhibition at 200 μg (TPA-induced ear edema; vehicle not given): 55%; inhibition at 0.5 µM (cyclooxygenase (PGE2); [2]): 91.3%
–	CCCCC/C=C\C/C=C\C/C=C\CCCCC(=O)C1=C(O)CSC1=O [Example 50, 4-Hydroxy-3-[(Z,Z,Z)-1-oxo-6,9,12-octadecatrienyl]-2(5H)-thiophenone]	–	–	–	–	19	–	100	21.6	Subcutaneous % Inhibition at 50 m/kg (TPA-induced ear edema; no vehicle on line): 78%; inhibition at 0.5 µM (cyclooxygenase (PGE2); [3]): -35%; inhibition at 0.5 µM (cyclooxygenase (PGE2); [2]): 70.1%
–	CCCC/C=C\CCCCCCCC(=O)C1=C(O)CSC1=O [Example 48, 4-Hydroxy-3-[(Z)-1-oxo-9-tetra-decenyl]-2(5H)-thiophenone]	–	–	–	–	–	–	86	71.8	Subcutaneous % Inhibition at 50 m/kg (TPA-induced ear edema; no vehicle on line): 58%; inhibition at 0.3 µM (cyclooxygenase (PGE2); [3]): -16%; inhibition at 0.03 µM (cyclooxygenase (PGE2); zymosan stimulation, 0.03 μM): 25.4%
4000	CCCCC/C=C\C/C=C\CCCCCCCC(=O)C1=C(O)COC1=O [Example 14, (Z,Z)-4-Hydroxy-3-(1-oxo-9,12-octadecadienyl)-2(5H)-furanone]	21	28	30	–	118	51	-5	–	Subcutaneous % Inhibition at 50 m/kg (TPA-induced ear edema; on line of vehicle EPW): 37%; inhibition at 5 µM (cyclooxygenase (PGE2); arachidonic acid stimulation, 5 μM, read-out: PGE2 AA % Inhibition): 38%
100	CCCCCCCC/C=C\CCCCCCCC(=O)C1=C(O)CSC1=O [Example 47, 4-Hydroxy-3-[(Z)-1-oxo-9-octadecenyl]-2(5H)-thiophenone]	77	74	–	47	–	69	–	48.4	inhibition at 0.3 µM (cyclooxygenase (PGE2); [3]): -26%
150	O=C(CCCCCCC/C=C\c1ccc(Cl)cc1)C1=C(O)COC1=O [Example 35, 3-[(Z)-10-(4-chlorophenyl)-1-oxo-9-decenyl]-4-hydroxy-2(5H)-furanone]	–	39	81.6	98.5	–	–	–	–	–
100	CCCCC/C=C\C/C=C\CCCCCCCC(=O)C1=C(O)CSC1=O [Example 46, 4-Hydroxy-3[(Z,Z)-1-oxo-9,12-octadecadienyl]-2(5H)-thiophenone]	73	41	–	39	46	82	–	51.9	inhibition at 0.5 µM (cyclooxygenase (PGE2); [3]): 5%

SMILES	IC50 (cyclooxygenase (PGE2); zymosan stimulation) [nM]	Subcutaneous % Inhibition at 50 m/kg (TPA-induced ear edema; on line of vehicle acetone) [%]	Topical % Inhibition at 200 μg (TPA-induced ear edema; vehicle acetone) [%]	inhibition at 10 µM [1] [%]	inhibition at 50 µM [1] [%]	ED50 (TPA-induced ear edema) [mg/kg]	Topical % Inhibition at 200 μg (TPA-induced ear edema; vehicle EPW) [%]	inhibition at 25 µM [1] [%]	inhibition at 0.1 µM (cyclooxygenase (PGE2); zymosan stimulation) [%]	other results
CCCC/C=C\CCCCCCCC(=O)C1=C(O)COC1=O [Example 25, 4-Hydroxy-3-((Z)-1-oxo-9-tetradecenyl)-2(5H)-furanone]	200	64	30	74	97	–	–	–	–	Topical % Inhibition at 200 μg (TPA-induced ear edema; vehicle not given): 86%
CCCCCCCC/C=C\CCCCCCCC(=O)C1=C(O)COC1=O [Example 9, (Z)-4-Hydroxy-3-(1-oxo-9-octadecenyl)-2(5H)-furanone]	200	7	42	–	100	–	56	–	–	Subcutaneous % Inhibition at 50 m/kg (TPA-induced ear edema; on line of vehicle EPW): 28%; inhibition at 0.3 µM (cyclooxygenase (PGE2); [3]): 4%
CCCCCCCCCC(=O)C1=C(O)COC1=O [Example 1, 4-Hydroxy-3-(1-oxodecyl)-2(5H)-furanone]	3000	23	31	37	–	–	–	46	–	–
